Results: the supplement of paper PMC12137928
Structures can show the parent of a compound that is named as a salt.

Assays:
HCT116 [1] = experiment: efficacy (maximum % inhibition of viability vs DMSO); higher = more cytotoxic; conditions: 72 h
Outline: (§1)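 For IC50 and maximal efficacy, four-parameter Hill fits were used. Input values were CellTiter-Glo luminescence from HCT116 cells seeded at 250 per well in 1536-well plates, normalized to vehicle (0%) and positive control (-100%). Pattern correction followed normalization.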

HCT116 [2] = conditions: 72 h
Outline: as §1

Row | Compound | efficacy (HCT116 [1]; ICRF193 0 nM) [%] | efficacy (HCT116 [1]; ICRF193 200 nM) [%] | IC50 cell viability (HCT116 [2]; ICRF193 0 nM) [µM] | IC50 cell viability (HCT116 [2]; ICRF193 200 nM) [µM]
1 | S=c1nc[nH]c2nc[nH]c12 [6-mercaptopurine] | 91.6 | 83.2 | 2.59 | 3.26
2 | Nc1c2ccccc2nc2ccccc12 [9-Aminoacridine, monohydrochloride, monohydrate] | 103 | 90.6 | 23.1 | 9.2
3 | C[C@H](Oc1cc(-c2cnn(C3CCNCC3)c2)cnc1N)c1c(Cl)ccc(F)c1Cl [(S)-Crizotinib] | 89.7 | 91.2 | 20.6 | 18.3
4 | COc1c(-c2ccc3cc(NS(C)(=O)=O)ccc3c2)cc(-n2ccc(=O)[nH]c2=O)cc1C(C)(C)C [ABT-333] | 94.6 | 102 | 20.6 | 25.9
5 | Cc1cnc(C(=O)N[C@H]2CCCCC/C=C\[C@@H]3C[C@@]3(C(=O)NS(=O)(=O)C3CC3)NC(=O)[C@@H]3C[C@@H](Oc4nc5ccccc5c5ccccc45)CN3C2=O)cn1 [ABT-450] | 110 | 100 | 29.1 | 18.3
6 | N=c1ccn2c(n1)O[C@H]1[C@H](O)[C@@H](CO)O[C@H]12 [ANCITABINE HYDROCHLORIDE] | 58.5 | 56.7 | 0.206 | 0.146
7 | C[C@H]1[C@H](OC(=O)CCC(=O)O)O[C@@H]2O[C@@]3(C)CC[C@H]4[C@H](C)CC[C@@H]1[C@@]24OO3 [ARTESUNATE] | 93.1 | 86.8 | 1.64 | 0.73
8 | CCN1CCN(Cc2ccc(Nc3ncc(F)c(-c4cc(F)c5nc(C)n(C(C)C)c5c4)n3)nc2)CC1 [Abemaciclib] | 116 | 112 | 16.4 | 18.3
9 | CC(=O)Oc1cc(C)c(OC(C)=O)c2ccccc12 [Acetomenaphthone] | 107 | 108 | 44.7 | 50.1
10 | CC[C@@]1(O)C[C@H](O[C@H]2C[C@H](N(C)C)[C@H](O[C@H]3C[C@H](O)[C@H](O[C@H]4CCC(=O)[C@H](C)O4)[C@H](C)O3)[C@H](C)O2)c2c(cc3c(c2O)C(=O)c2c(O)cccc2C3=O)[C@H]1C(=O)OC [Aclarubicin] | 122 | 112 | 23.1 | 9.2
11 | C[n+]1c2cc(N)ccc2cc2ccc(N)cc21.Nc1ccc2cc3ccc(N)cc3nc2c1 [Acriflavine hydrochloride] | 50.4 | 56.5 | 16.4 | 23.1
12 | Cc1c2oc3c(C)ccc(C(=O)N[C@@H]4C(=O)N[C@H](C(C)C)C(=O)N5CCC[C@H]5C(=O)N(C)CC(=O)N(C)[C@@H](C(C)C)C(=O)O[C@@H]4C)c3nc-2c(C(=O)N[C@@H]2C(=O)N[C@H](C(C)C)C(=O)N3CCC[C@H]3C(=O)N(C)CC(=O)N(C)[C@@H](C(C)C)C(=O)O[C@@H]2C)c(N)c1=O [Actinomycin D] | 48.1 | 79.3 | 0.0164 | 0.0206
13 | CC(C)(C)C(=O)OCOP(=O)(COCCn1cnc2c(N)ncnc21)OCOC(=O)C(C)(C)C [Adefovir dipivoxil] | 63.1 | 79.3 | 14.6 | 13
14 | CN(C)C/C=C/C(=O)Nc1cc2c(Nc3ccc(F)c(Cl)c3)ncnc2cc1O[C@H]1CCOC1 [Afatinib (BIBW2992)] | 110 | 130 | 29.1 | 18.3
15 | CCCSc1ccc2[nH]c(NC(=O)OC)nc2c1 [Albendazole] | 53 |  | 10.3 | > 45.8
16 | O=C1c2ccccc2C(=O)c2c1ccc(O)c2O [Alizarin] |  | 47.6 | > 45.8 | 29.1
17 | O=S(=O)(O)c1ccc2c(/N=N/c3ccc(S(=O)(=O)O)c4ccccc34)c(O)c(S(=O)(=O)O)cc2c1 [Amaranth] | 49 | 47.6 | 16.4 | 13
18 | CCCCc1oc2ccccc2c1C(=O)c1cc(I)c(OCCN(CC)CC)c(I)c1 [Amiodarone hydrochloride] | 92.6 | 93 | 20.6 | 16.4
19 | CN(C)CCC=C1c2ccccc2CCc2ccccc21 [Amitriptyline hydrochloride] |  | 51.6 | > 45.8 | 18.3
20 | CCOC(=O)C1=C(COCCN)NC(C)=C(C(=O)OC)C1c1ccccc1Cl (stereo not given) [Amlodipine] |  | 88.3 | > 45.8 | 16.4

Row | Compound | efficacy (HCT116 [1]; ICRF193 0 nM) [%] | efficacy (HCT116 [1]; ICRF193 200 nM) [%] | IC50 cell viability (HCT116 [2]; ICRF193 0 nM) [µM] | IC50 cell viability (HCT116 [2]; ICRF193 200 nM) [µM]
21 | CCN(CC)Cc1cc(Nc2ccnc3cc(Cl)ccc23)ccc1O [Amodiaquin dihydrochloride dihydrate] | 85.2 | 101 | 18.3 | 18.3
22 | COc1cc(NS(C)(=O)=O)ccc1Nc1c2ccccc2nc2ccccc12 [Amsacrine] | 141 | 128 | 20.6 | 20.6
23 | CN1CCc2cccc3c2[C@H]1Cc1ccc(O)c(O)c1-3 [Apomorphine] | 116 | 107 | 20.6 | 29.1
24 | C[C@@H](O[C@H]1OCCN(Cc2n[nH]c(=O)[nH]2)[C@H]1c1ccc(F)cc1)c1cc(C(F)(F)F)cc(C(F)(F)F)c1 [Aprepitant] | 113 | 102 | 23.1 | 18.3
25 | COC(=O)C1=C(C)NC(C)=C(C(=O)OCC(C)=O)C1c1ccccc1[N+](=O)[O-] (stereo not given) [Aranidipine] | 83.8 | 88.9 | 29.1 | 16.4
26 | [O-][n+]1cccc(/C(Cl)=N/OC[C@H](O)CN2CCCCC2)c1 [Arimoclomol] |  | 65.4 | > 45.8 | 0.651
27 | O=C1CCc2ccc(OCCCCN3CCN(c4cccc(Cl)c4Cl)CC3)cc2N1 [Aripiprazole] | 52.1 | 59.1 | 11.6 | 9.2
28 | COc1ccc(CCN2CCC(Nc3nc4ccccc4n3Cc3ccc(F)cc3)CC2)cc1 [Astemizole] | 108 | 102 | 20.6 | 16.4
29 | CNCC[C@@H](Oc1ccccc1C)c1ccccc1 [Atomoxetine hydrochloride] |  | 81.3 | > 45.8 | 29.1
30 | CC(C)c1c(C(=O)Nc2ccccc2)c(-c2ccccc2)c(-c2ccc(F)cc2)n1CC[C@@H](O)C[C@@H](O)CC(=O)O [Atorvastatin calcium] | 60.2 | 70.6 | 18.3 | 18.3
31 | O=C1C(O)=C([C@H]2CC[C@H](c3ccc(Cl)cc3)CC2)C(=O)c2ccccc21 [Atovaquone] |  | 54.1 | > 45.8 | 18.3
32 | CC(=O)OC[C@H]1O[C@@H]([S-])[C@H](OC(C)=O)[C@@H](OC(C)=O)[C@@H]1OC(C)=O.CCP(CC)CC.[Au+] [Auranofin] | 102 | 96.8 | 2.59 | 2.59
33 | CC[C@H](C)[C@@H]([C@@H](CC(=O)N1CCC[C@H]1[C@H](OC)[C@@H](C)C(=O)NCCc1ccccc1)OC)N(C)C(=O)[C@@H](NC(=O)[C@H](C(C)C)N(C)C)C(C)C [Auristatin PE] |  | 42.4 | > 45.8 | 0.00461
34 | CCC(C)C1O[C@]2(C=C[C@@H]1C)C[C@@H]1CC(C/C=C(\C)[C@@H](OC3C[C@H](OC)[C@@H](OC4C[C@H](OC)[C@@H](O)[C@H](C)O4)[C@H](C)O3)[C@@H](C)/C=C/C=C3\COC4[C@H](O)C(C)=CC(C(=O)O1)[C@]34O)O2 (stereo not given in full) [Avermectin B1a] | 92.3 |  | 8.2 | > 45.8
35 | CNC(=O)c1ccccc1Sc1ccc2c(/C=C/c3ccccn3)n[nH]c2c1 [Axitinib] | 57.5 | 62.1 | 23.1 | 20.6
36 | O=C(CCCN1CCN(c2ccccn2)CC1)c1ccc(F)cc1 [Azaperone] |  | 87.6 | > 45.8 | 0.206
37 | Cn1cnc([N+](=O)[O-])c1Sc1ncnc2[nH]cnc12 [Azathioprine] | 77.4 | 85.9 | 2.91 | 3.66
38 | CN1CCCC(n2nc(Cc3ccc(Cl)cc3)c3ccccc3c2=O)CC1 (stereo not given) [Azelastine hydrochloride] |  | 65.4 | > 45.8 | 29.1
39 | CC1=C(C(=O)OC(C)C)C(c2cccc([N+](=O)[O-])c2)C(C(=O)OC2CN(C(c3ccccc3)c3ccccc3)C2)=C(N)N1 (stereo not given) [Azelnidipine] | 124 | 98 | 23.1 | 18.3
